Laboratory results published in US5304367A, “In vivo brain imaging agent and method for diagnosis of psychiatric disorders” (New York University, priority 1990, dated 1994).
“And” between values parts separate entries of the source, which are not always exact repeats. Equal values may be shown once. Read-outs that look alike come from different tables or passages of the source.

Columns and labels:
[1] = whole body distribution, mice, 2 μCi; format: in vivo, mouse; conditions: conclusion from whole body distribution studies
Description: In a subsequent study, whole body distribution was examined in mice following tail vein injection of 2 μCi ^125 I-iodopindolol. Animals were sacrificed at various time points up to 22 hours post-injection. Percent injected dose (%ID) was determined in 11 organs, blood and urine. At one minute, lungs contained the highest %ID (17%), heart 3-4 %ID and brain 0.3%ID.

β1 = conditions: experimental animals; cited from earlier work
[2] = test system: serotonin receptors of the 5HT1D subtype; conditions: unlike most other βAR antagonists; cited from earlier work
β2 = conditions: experimental animals; cited from earlier work
[3] = test system: serotonin receptors of the 5HT1B subtype; conditions: unlike most other βAR antagonists; cited from earlier work
[4] = biological target: beta adrenergic receptors (βAR); conditions: βAR antagonist; Barovsky et al.; read-out: affinity; cited from earlier work
β2 receptors = assay: autoradiographic mapping of β2 receptors (iodopindolol in the presence of metoprolol); format: binding, human; conditions: FIG. 4
Description: (§1) Slides holding tissue sections are incubated for about 70 min at approximately 25° C. with 0.15 nM ^125 I-iodopindolol (New England Nuclear, 2200 Ci/mmole) in 25 mM Tris buffer, pH 7.5, containing 150 mM NaCl. Nonspecific binding is determined in the presence of 1 μM propranolol (see Examples, below). Zinterol, a selective β2 blocker, or metoprolol, a selective β1 antagonist, are added to the incubation buffer at 0.1 μM to achieve selective labeling of the β1 and β2 receptor subtypes, respectively. The incubation is followed by three 20 min washes in the same ice cold buffer. Slides are then dipped in ice cold distilled water to remove buffer salts, dried on a 50° C. slide warmer and apposed to ^3 H-sensitive film (Amersham ^3 H-hyperfilm) for 48-96 hours. The film is coexposed to commercial iodine standards (available from Amersham, for example). Film is developed manually using standard developer and fixer such as those available from the Eastman-Kodak Company. […]
(§2) Based on 3 brains, a total Bmax of 50-100 fm/mg protein was calculated, with the β1 receptor subtype accounting for the majority of the sites (Bmax: 40-60 fm/mg protein) and a smaller β2 receptor fraction (Bmax: 25-40 fm/mg protein). […]

β1 receptors = assay: autoradiographic mapping of β1 receptors (iodopindolol in the presence of zinterol); format: binding, human; conditions: FIG. 3
Description: as §1, §2

[5] = experimental animals; cited from earlier work
βAR [6] = assay: in vivo autoradiography of brain distribution and kinetics; set-up: species or system rat
Description: In vivo autoradiography was been used to study brain distribution and kinetics of iodopindolol. Groups of rats (3 per treatment/time) were injected intravenously (i.v.) in the tail vein with 250 μCi/kg ^125 I-iodopindolol, either alone or 5 min after an intraperitoneal injection of the βAR antagonist (beta blocker) propranolol (5 mg/kg), to define nonspecific binding. Animals were sacrificed by decapitation 15, 30, 60 and 90 minutes post- injection and the brains quickly removed. The right hemisphere and a blood sample were used for direct counting while the left hemisphere was frozen immediately on dry ice and then sectioned sagittally. Sections were apposed to hyperfilm for one week.

β2 receptor = assay: ^3 H-DHA saturation binding on homogenates of frontal superior gyrus, β2; set-up: species or system human; conditions: 3 brains, 0.1 μM zinterol or metoprolol for subtype differentiation
Description: (§3) Following the characterization and localization of a group effect (such as, for example, age, sex or suicide) by autoradiography, samples from at least one involved region are dissected from the relevant blocks and homogenized for saturation binding studies using well known techniques.
(§4) Based on 3 brains, a total Bmax of 50-100 fm/mg protein was calculated, with the β1 receptor subtype accounting for the majority of the sites (Bmax: 40-60 fm/mg protein) and a smaller β2 receptor fraction (Bmax: 25-40 fm/mg protein). The Bmax values for the two subtypes added up to total specific binding in each individual brain, confirming the use of the two blocker concentrations for receptor subtype differentiation.

β1 receptor subtype = assay: ^3 H-DHA saturation binding on homogenates of frontal superior gyrus, β1; set-up: species or system human; conditions: 3 brains, 0.1 μM zinterol or metoprolol for subtype differentiation
Description: as §3, §4

β-adrenergic receptor = assay: [^3 H]DHA saturation binding in prefrontal cortical homogenates from suicides and controls (Scatchard analysis); set-up: species or system human
Source text: as §3
Fourteen suicide and 14 pair-matched control brains were collected over 3 years from the medical examiner's offices in New York City and Jaffa, ISRAEL. […] The results of the coroner's examination as well as the results of broad-spectrum toxicological tests performed by the forensic laboratory were made available within 8 weeks. Only drug-free and pathology-free brains were included. For each suicide brain, a control matched for sex and age group with a PMD under 48 hours was collected the same day or within a few days, so that the pairs are also matched for storage time. The brains from each pair were dissected or sectioned on the same day and receptors were labeled in the same experiment, by an experimenter blind to the identity of the samples.
(§5) The brains were removed at autopsy and the right hemisphere sliced in the coronal plane. The slices, about 2 cm thick, were examined for signs of pathology and frozen in powdered dry ice, then removed for long-term storage at -80° C. Grey matter from the most frontal slice (prefrontal cortex) was dissected with a scalpel and homogenized. Crude membrane preparations were made from the homogenates, divided and stored frozen for saturation binding assays. The other slices were used for autoradiography. Eight concentrations of [^3 H]DHA (New England Nuclear, specific activity: 72 Ci/mmol), ranging from 0.1 to 4 nM were incubated with samples of the membrane preparations, with parallel incubates containing 10^-6 M propranolol to establish non-specific binding (Biegon et al., Life Sci. 32:2015-2022 ;(1983)); Enna et al., J. Neurochem. 28:233-236 (1983)). β-Receptor subtypes were distinguished by coincubation of the radioligand 10^-6 M concentrations of either zinterol, a […] blocker, or […] blocker, in 5 out of the 10 pairs included in this part of the study (Ecker et al., Int. Catecholamine Symp. Abstr. 6:52 (1987)). The affinity (Kd and maximal density (Bmax) of the receptors were derived from Scatchard analysis (Scatchard G., Ann. N.Y. Acad. Sci. 51:660-672 (1949)) of the binding data and protein was assayed by the method of Lowry et al.(Lowry et al., J. Biol. Chem. 193:265-275 (1951)).
The binding characteristics of βARs were studied in prefrontal cortical homogenates from 10 pairs. The region corresponds to Brodmann's areas 9 and 10.

β1-receptors = biological target: T1, β1-receptors (Homo sapiens, UniProt P08588); assay: [^3 H]DHA saturation binding in prefrontal cortical homogenates, β1-receptors
T1 construct: Crude membrane preparations were made from the homogenates; from tissue; host or cells: human post-mortem prefrontal cortex (grey matter), crude membranes
Source text: as §3, §5

β2-receptors = biological target: T2, β2-receptors (Homo sapiens, UniProt P07550); assay: [^3 H]DHA saturation binding in prefrontal cortical homogenates, β2-receptors
T2 construct: Crude membrane preparations were made from the homogenates; from tissue; host or cells: human post-mortem prefrontal cortex (grey matter), crude membranes
Source text: as §3, §5

βAR [7] = assay: ^3 H-DHA saturation binding on homogenates of frontal superior gyrus, total; set-up: species or system human; conditions: 3 brains

T2 sequence (P07550 whole entry, looked up): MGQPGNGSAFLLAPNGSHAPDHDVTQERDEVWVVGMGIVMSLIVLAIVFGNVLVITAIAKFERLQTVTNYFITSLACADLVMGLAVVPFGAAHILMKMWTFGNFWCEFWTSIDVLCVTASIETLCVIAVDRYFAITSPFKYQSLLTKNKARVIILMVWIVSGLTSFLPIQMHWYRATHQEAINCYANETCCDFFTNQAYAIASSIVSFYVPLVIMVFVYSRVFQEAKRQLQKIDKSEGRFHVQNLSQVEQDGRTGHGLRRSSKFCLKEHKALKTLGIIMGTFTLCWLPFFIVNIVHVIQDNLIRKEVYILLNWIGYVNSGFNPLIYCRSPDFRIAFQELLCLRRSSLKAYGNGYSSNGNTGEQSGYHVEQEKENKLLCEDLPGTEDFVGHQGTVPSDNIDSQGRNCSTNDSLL
T1 sequence (P08588 whole entry): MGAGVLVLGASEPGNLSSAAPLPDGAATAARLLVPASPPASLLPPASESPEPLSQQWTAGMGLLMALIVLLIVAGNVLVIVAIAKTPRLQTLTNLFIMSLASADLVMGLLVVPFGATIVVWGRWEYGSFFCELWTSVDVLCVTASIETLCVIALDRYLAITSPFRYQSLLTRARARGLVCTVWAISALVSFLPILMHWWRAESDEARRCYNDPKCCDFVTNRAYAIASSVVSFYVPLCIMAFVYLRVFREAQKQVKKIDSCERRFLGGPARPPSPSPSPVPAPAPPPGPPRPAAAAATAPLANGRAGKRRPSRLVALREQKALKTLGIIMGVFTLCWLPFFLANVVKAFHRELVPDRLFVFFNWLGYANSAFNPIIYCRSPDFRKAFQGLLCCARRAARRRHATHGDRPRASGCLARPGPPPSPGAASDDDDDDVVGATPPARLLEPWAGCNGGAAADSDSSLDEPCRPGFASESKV

SMILES: CC(C)NCC(O)COc1cccc2[nH]cc(I)c12 (stereo not drawn) [iodopindolol]
- brain uptake [1]: hindered by the blood brain barrier
- labelling of βAR subtype β1 in vivo (β1): labels both βAR subtypes, β1 and β2, in vivo
- affinity for serotonin receptors, 5HT1D [2]: low affinity
- labelling of βAR subtype β2 in vivo (β2): labels both βAR subtypes, β1 and β2, in vivo
- affinity for serotonin receptors, 5HT1B [3]: low affinity
- Kd [4]: < 1 nM
- distribution of β2 receptors (β2 receptors): found in internal cortical layers and predominate in hippocampus, cerebellum and white matter
- distribution of β1 receptors (β1 receptors): predominate in the prefrontal cortical external layers and in basal ganglia
- crossing of blood brain barrier [5]: crosses the blood brain barrier
- difference between total and nonspecific binding to brains (βAR [6]; 15 and 30 minutes post-injection, 250 μCi/kg i.v., propranolol 5 mg/kg i.p.): very small difference
- brain binding of radiolabel, propranolol pre-injected (βAR [6]; 60 and 90 minutes, propranolol 5 mg/kg i.p.): low and uniform brain binding of radiolabel
- distribution of binding in the brain (βAR [6]; 60 and 90 minutes, without propranolol): high levels in frontal cortex, caudate, and cerebellum; moderate to low levels in various hippocampal structures and thalamic nuclei; low levels in brain stem and medulla
- difference between iodopindolol alone and propranolol-pretreated animals (βAR [6]; FIG. 5, 15 minutes post injection): no apparent difference
- distribution of radioactivity (βAR [6]; FIG. 6, 60 minutes post injection): relatively high levels in external cortical layers, caudate and cerebellum and relatively low levels in hippocampus
- brain levels of bound radiolabel (βAR [6]; between 60 and 90 minutes): do not decline appreciably between 60 and 90 minutes
- specific labelling of βAR in the brain (βAR [6]; one hour after injection): specifically labels βAR

SMILES: CCCc1ccccc1OCC(O)CNC(C)C (stereo not drawn) [[^3 H]DHA, dihydroalprenolol]
- Bmax, β2 receptor (β2 receptor): 25-40 fm/mg protein
- Bmax, β1 receptor subtype (β1 receptor subtype): 40-60 fm/mg protein
- Bmax (β-adrenergic receptor; control, individual of matched pair, prefrontal cortex): 65 fm/mg P and 92 fm/mg P and 44 fm/mg P and 31 fm/mg P and 86 fm/mg P and 55 fm/mg P and 78 fm/mg P and 36 fm/mg P and 32 fm/mg P and 53 fm/mg P
- Kd (β-adrenergic receptor; control, individual of matched pair, prefrontal cortex, read-out: Kd): 0.84 nM and 0.8 nM and 0.3 nM and 0.4 nM and 0.6 nM and 1.25 nM and 1.5 nM
- Bmax, mean (β-adrenergic receptor; control, mean of 10, SEM 7.9): 57.7 fm/mg P
- change in receptor affinity (Kd) (β-adrenergic receptor; suicide vs control): no significant change in receptor affinity
- Increases in binding (range) (β-adrenergic receptor; suicide vs control, 9 of the 10 pairs): 30% to 115%
- Increases in binding (mean) (β-adrenergic receptor; suicide vs control, P<0.0003): 48%
- Bmax (β-adrenergic receptor; suicide, individual of matched pair, prefrontal cortex): 108 fm/mg P and 81 fm/mg P and 85 fm/mg P and 67 fm/mg P and 119 fm/mg P and 97 fm/mg P and 106 fm/mg P and 58 fm/mg P and 53 fm/mg P and 83 fm/mg P
- Kd (β-adrenergic receptor; suicide, individual of matched pair, prefrontal cortex, read-out: Kd): 0.98 nM and 0.9 nM and 1.5 nM and 1.2 nM and 1.4 nM and 1.1 nM and 1 nM and 0.4 nM and 0.8 nM
- Kd (β-adrenergic receptor; suicide, mean of 10, SEM 0.1, read-out: Kd, mean): 1 nM
- Bmax, mean (β-adrenergic receptor; suicide, mean of 10, SEM 7.8, P < 0.0003): 86.0 fm/mg P
- Bmax, β1-receptors (β1-receptors; control, n=5): 37.7±9.3 fm/mg protein
- Kd (β1-receptors; control, n=5): 2.2 ± 0.5 nM
- Kd (β1-receptors; suicide, n=5): 1.7 ± 0.3 nM
- Bmax, β1-receptors (β1-receptors; suicide, n=5, P<0.015): 50.3±9.4 fm/mg protein
- Bmax, β2-receptors (β2-receptors; control): 28.0±4.0 fm/mg protein
- Kd (β2-receptors; control): 1.1 ± 0.13 nM
- Bmax, β2-receptors (β2-receptors; suicide, p=0.1): 39.2±3.1 fm/mg protein
- total Bmax (βAR [7]): 50-100 fm/mg protein
